Assay results reported in US10308685B2, “Inhibitory peptides of viral infection” (UNIVERSITY OF TENNESSEE RESEARCH FOUNDATION, priority 2014, dated 2019).
pIC50: −log10 of the molar value. Where a SMILES comes first, the peptide text is derived from it. Where no end group is shown, it is not given here.

What was measured:
trypsin = test: Proteolytic stability: trypsin incubation, then HCMV luciferase assay on MRC-5 cells; format: in vitro ADME; conditions: 200 μM peptide, 200 μg/ml trypsin, 37° C., 30 and 60 minutes
Protocol: FIG. 8. Proteolytic stability of p5 and Dp5R. 200 μM of each peptide, CGGY-p5 (SEQ ID NO: 22) and GGGY-Dp5R (SEQ ID NO: 24, D form), was incubated with 200 μg/ml of trypsin for 30 minutes and 60 minutes then added to MRC-5 cells 30 minutes prior to the addition of virus. Data is representative of three separate experiments with three repeats ±SD.
Without wishing to be bound by any particular theory, this increased binding could be due to proteolytic stability of the D-form. Trypsin was thus used to test the proteolytic stability of p5 and Dp5R. More particularly, each peptide was incubated at 37° C. for 30 minutes and 60 minutes with 200 μg/ml of trypsin then added to cells 30 minutes before the addition of virus.

[1] = target: HCMV expressing luciferase (Towne strain); format: cell-based, Human Cytomegalovirus; conditions: MRC-5 cells, peptide 30 min prior to virus
Protocol: A recombinant luciferase-expressing Towne strain of HCMV was used for each experiment. To obtain the virus, the virus was cultured in vitro on HFF cells. The virus was titered using a standard plaque assay.
Cells were cultured according to methods known to those of skill in the art. Briefly, human fetal lung fibroblasts (MRC-5, ATCC) were cultured in minimum essential media (MEM, HyClone) supplemented with fetal bovine serum (FBS, HyClone), and L-glutamine. Human foreskin fibroblasts (HFF, ATCC) were cultured in dulbecco's modified eagle medium (DMEM, GE HyClone) supplemented with FBS, L-glutamine and sodium pyruvate. Human aortic endothelial cells were cultured in EGM-2 Bullet Kit (Lonza) supplemented with FBS. Human retinal pigment epithelia cells (ARPE-19) were cultured in DMEM and Hams F12 medium (Lonza) and supplemented with FBS.
Efficacy of viral reduction was measured using a luciferase assay with HCMV expressing luciferase virus. Cells were cultured in a 24-well plate until they reached ˜80% confluency. The cells were washed with phosphate buffered saline (PBS) then treated with peptide. The control cells were treated with PBS supplemented with FBS. After peptide incubation, virus was added (100 RLU for MRC-5, HFF and 1000 RLU for HAEC, ARPE-19) for 1 h. […] After the addition of LAR to the supernatant the luminescence was quantified using a plate reader (BioTek). […]

MCMV [2] = format: cell-based, Murine Cytomegalovirus; conditions: for inhibition of MCMV infection (plaque reduction): 500 μg/ml, mouse embryonic fibroblasts incubated with peptide 30 min prior to virus
Protocol: Murine Cytomegalovirus (MCMV) RM4503 was cultured in vitro in MEF 10.1 cells. The virus stock was titered using plaque assay (described below) and stored at −80° C. Human Cytomegalovirus (HCMV) TB40/E was obtained from (46, 47) and cultures in vitro in HFF cells. The virus stock was titered using plaque assay and stored at −80° C. HSV-1 and HSV-2 were cultured in vitro in VERO cells. The virus stock was titered using plaque assay and stored at −80° C.
Peptides were screened for their ability to reduce viral infection using a plaque reduction assay. Cells were cultured in 12-well (VERO) or 24-well culture plates (MEF 10.1 and HFF). When the cells reached ˜80% confluence the media was removed and the cells washed once with PBS before addition of peptide. As a control, cells were incubated with PBS alone. After a 30 min of incubation with peptide in PBS, the virus was added and incubated for another 90 min (HSV and HCMV) or 60 min (MCMV). Following virus incubation the peptide/virus mixture was removed and replaced with 0.75% carboxy-methyl cellulose (Sigma Aldrich, St. Louis, Mo.)+complete media (CMC) or 0.5% agarose (Lonza, Rockland, Me.) in complete media. The plates were incubated at 37° C. in 5% CO2 for 4 days when plaques began to develop, following which they were stained with Coomassie stain (AMRESCO, Solon, Ohio). Plaques were counted manually and data analyzed using Prism 5.0 (GraphPad Software, La Jolla, Calif.). Data were expressed as % plaques relative to the average number of plaques in the PBS-treated wells.
In the initial screening assays all peptides were tested at a single concentration (500 μg/ml) using a plaque-reduction assay, in which mouse embryonic fibroblasts were incubated with the peptides for 30 min prior to the addition of virus.
In the infectivity assays described above the peptide and virus were co-incubated with the cells. Therefore to ensure the peptide was not directly inactivating the virus, MCMV was incubated with 100 μM (˜20× the IC50) peptide at 37° C. for 1 h, diluted to an ineffective peptide concentration (1 μM) and fibroblast infection rates measured.
To determine at which stage of the MCMV entry cycle the peptide interferes, four different peptide treatment protocols were tested, 1) 30 min. prior to infection (pre-adsorption) 2) simultaneously with virus (during adsorption) 3) after letting the virus adsorb to the cells at 4° C. for lhr (post adsorption) or 4) after allowing the virus to fuse with the cell membrane at 37° C. for lhr (post fusion) (FIG. 3(B)).

MEF 10.1 cells = test: Visualization of bound biotinylated peptide on fixed MEF cells (fluorescence); format: binding, Mouse; conditions: 1.6 μg/mL, streptavidin fluorescence
Protocol: Coverslips with fixed MEF cells prepared, washed in PBS and blocked with 1% BSA/PBS for 5 min. Following a PBS wash the nuclei were stained by using Hoechst (Life Technologies Molecular Probes, Grand Island, N.Y.) 1:100 in H2O— for 30 min at 37° C. Tissues were then blocked using a casein block solution (Scytek) for 5 min, AVIDIN/Biotin blocks (VECTOR, Burlingame, Calif.) for 20 min each at room temperature (RT) followed by a 5 min PBS wash. Biotinylated GGGY-p5+14 (SEQ ID NO: 25) or p5G (control) at 1.6 μg/mL in PBS was added and the tissues incubated overnight at 4° C. Following a PBS wash Alexa Fluor 594-conjugated streptavidin (Molecular Probes) was added at a 1:200 dilution in PBS for lhr at RT. Cells were then permeabilized by addition of 0.2% Triton X-100 (Sigma) in PBS for 10 min at RT and washed with a solution of 1% BSA in PBS for 30 min. The cells were then stained with Alexa Fluor 488-conjugated phalloidin (Molecular Probes) 1:100 dilution of stock in 1% BSA/PBS, for 45 min. at RT to visualize cytoskeleton. Slides were cover-slipped using a fluorescent mounting medium (Dako, Carpinteria, Calif.) to minimize photobleaching.

[3] = mouse, in vivo; cited from earlier work
MCMV [4] = test: Interference of peptide mediated reduction by heparin (MCMV plaque reduction); format: cell-based, Murine Cytomegalovirus
Protocol: Peptide GGGY-p5+14 (SEQ ID NO: 25) (at 100 μM) was pre-incubated with heparin sodium salt (Acros Organics, NJ) at different concentrations for 1 h at 37° C. Following which the heparin/peptide mix was added to the cells and incubated for 30 min at 37° C. Following the incubation, the supernatant was aspirated and cells washed once with PBS to remove unbound/excess heparin or peptide. The cells were subsequently infected with ˜100 pfu/well of MCMV. To test whether heparin treatment of cells interferes with virus infection, MEF 10.1 cells in a 24 well dish were pre-incubated with different concentrations of heparin for 1 hour and washed as described above. Following the pre-incubation infection was initiated as mentioned above. Finally to test the effect of heparin treatment on the infectivity of virus, MCMV was incubated with different concentration of heparin for lhr before infecting cells. For all these treatments, the virus was removed lhr post infection and cells overlaid with CMC. Plates were incubated for 4 days before staining and counting the plaques. Plaque reduction assay was performed as mentioned above.

Compound: C[C@@H](NC(=O)[C@@H](CCC(N)=O)NC(=O)[C@@H](C)NC(=O)[C@@H](CCCNC(=N)N)NC(=O)[C@@H](CCC(N)=O)NC(=O)[C@@H](C)NC(=O)[C@@H](CCCNC(=N)N)NC(=O)[C@@H](CCC(N)=O)NC(=O)[C@@H](C)NC(=O)[C@@H](CCC(N)=O)NC(=O)[C@@H](CCCNC(=N)N)NC(=O)[C@@H](C)NC(=O)[C@@H](CCC(N)=O)NC(=O)[C@@H](CCCNC(=N)N)NC(=O)[C@@H](C)NC(=O)[C@@H](CCC(N)=O)NC(=O)[C@@H](C)NC(=O)[C@@H](CCCNC(=N)N)NC(=O)[C@@H](CCC(N)=O)NC(=O)[C@@H](C)NC(=O)[C@@H](CCCNC(=N)N)NC(=O)[C@@H](CO)NC(=O)[C@@H](Cc1ccc(O)cc1)NC(=O)CNC(=O)CNC(=O)CN)C(=O)N[C@H](CCCNC(=N)N)C(=O)N[C@H](CCC(N)=O)C(=O)N[C@H](C)C(=O)N[C@H](CCCNC(=N)N)C(=O)N[C@H](CCC(N)=O)C(=O)O [GGGY-Dp5R] (HELM PEPTIDE1{G.G.G.[dY].[dS].[dR].[dA].[dQ].[dR].[dA].[dQ].[dA].[dR].[dQ].[dA].[dR].[dQ].[dA].[dQ].[dR].[dA].[dQ].[dR].[dA].[dQ].[dA].[dR].[dQ].[dA].[dR].[dQ]}$$$$V2.0; N-terminus and C-terminus assumed)
- ability to reduce infection after incubation with trypsin (trypsin): retained its ability to reduce infection
- pIC50 [1]: ~4.12

Compound: CGGYSEAQEAQAEQAEQAQEAQEAQAEQAEQ (Peptide CGGY-p5e Synthetic Construct)
- inhibition of MCMV infection (plaque reduction) (MCMV [2]): did not reduce MCMV infection

Compound: CGGYSGAQGAQAGQAGQAQGAQGAQAGQAGQ (also: biotinylated) [CGGY-p5G]
- inhibition of MCMV infection (plaque reduction) (MCMV [2]): did not reduce MCMV infection
- binding to mouse fibroblasts in culture (MEF 10.1 cells): did not bind to cells

Compound: CGGYSKAQKAQAKQAKQAQKAQKAQAKQAKQ [CGGY-p5]
- ability to reduce infection after incubation with trypsin (trypsin): only able to reduce viral infection in cells when it had not been treated with trypsin
- pIC50 [1]: ~4.22
- peptide binding to GAGs expressed in healthy organs or tissues [3]: no evidence of peptide binding to GAGs expressed in healthy organs or tissues

Compound: CGGYSLAQLAQALQALQAQLAQLAQALQALQ (Peptide CGGY-p5L Synthetic Construct)
- inhibition of MCMV infection (plaque reduction) (MCMV [2]): did not reduce MCMV infection

Compound: GGGYSRAQRAQARQARQAQRAQRAQARQARQ (CGGY-p5R Peptide Synthetic Construct) [GGGY-p5R]
- blocks viral infection better compared to peptide p5 (CGGY-p5) (MCMV [2]; 500 μg/ml screen, FIG. 1(A)): 4 fold

Compound: MPRRRRIRRRQK (Peptide G2 Synthetic Construct) [reference compound]
- reduction in infection (MCMV) (MCMV [2]; 10 μM): ineffective
- inhibition of MCMV infection (MCMV [2]; 100 μM): effectively inhibited

Compound: heparin sodium salt
- MCMV infection after pre-incubation of the cells with heparin (MCMV [4]; cells pre-incubated with heparin 1 hour prior to virus addition): did not alter MCMV infection
- reduction of virus infection after pre-incubation of virus with heparin (MCMV [4]; heparin concentrations >2 μg/mL): > 80%
